Data published in patent US20150210796A1, “Novel Compound, Novel Polymer, Colorant Including the Same, Positive Photosensitive Resin Composition Including the Same, and Color Filter” (Samsung SDI Co., Ltd., priority 2014, published 2015).

Experiment: Solubility: dissolution state of compound in dilution solvent
Format: physicochemical
Conditions: agitated at 25° C. and 100 rpm for 1 hour; for Amount of dissolved compound, diluted solvent (Anone): 0.5 g compound added to Anone (cyclohexanone); for Amount of dissolved compound, diluted solvent (PGMEA): 0.5 g compound added to PGMEA
Method: 0.5 g of each compound represented by Chemical Formulae 3-1 and 7-1 is respectively added to a dilution solvent (PGMEA, Anone, MeOH) to prepare each solution, the solution is agitated at 25° C. and 100 rpm for 1 hour with a mix rotor (MIXROTAR VMR-5, Luchi Deiseido Co., Ltd.) to examine dissolution state of the compound (the content of the dissolved compound), and the results are provided in the following Table 1. (Anone indicates cyclohexanone)

Structure (SMILES) | Amount of dissolved compound, diluted solvent (Anone) | Amount of dissolved compound, diluted solvent (PGMEA) | Amount of dissolved compound, diluted solvent (MeOH) (0.5 g compound added to MeOH)
C=C(C)C(=O)OCCNS(=O)(=O)c1ccc(-c2c3ccc(=[N+](CC)CC)cc-3oc3cc(N(CC)CC)ccc23)c(S(=O)(=O)[O-])c1 [Chemical Formula 3-1] | equal to 0.1 wt % | to 0.1 wt % | –
C=C(C)C(=O)OCCN(CCCCCCCCCCCCCCCC)S(=O)(=O)c1ccc(-c2c3ccc(=[N+](CC)CC)cc-3oc3cc(N(CC)CC)ccc23)c(S(=O)(=O)[O-])c1 [Chemical Formula 7-1] | 3.0 wt % | 0.1 wt % | equal to 10.0 wt %
